The text below walks through data of article PMC7914298 (Bioorganic & medicinal chemistry, 2020).

One data set deals with NEB 5-alpha E. coli. In kind it is cell-based, Escherichia coli. The settings on record: 12-day serial passage, duplicates.
The test system of data set [1] is human FHs 74 Int small intestinal cells. Nature of the data set: Alamar Blue cell viability assay, FHs 74 Int small intestine cells. The settings on record: for Cytotoxicity to human cells (in words): FHs 74 Int shown, FHC colon cells similar. In general terms: The colour change of resazurin is a common sign of viable cells or microbes.
The next data set deals with E. coli GroEL/ES (Escherichia coli, UniProt P0A6F5). The data set is described as follows: In situ NfsB-GroEL/ES-dMDH refolding assay. It counts as biochemical. Particulars: activated by E. coli NfsB.
Data set [2] deals with resistant E. coli strains. Nature of the data set: Cross-resistance testing of resistant E. coli strains. In kind it is cell-based, Escherichia coli. Particulars: for Cross-resistance of 17-resistant E. coli strains (in words): strains initially made resistant to 17; for Cross-resistance of nitrofurantoin-resistant E. coli strains (in words): strains initially made resistant to nitrofurantoin; for Cross-resistance of nifuroxazide-resistant E. coli strains (in words): strains initially made resistant to nifuroxazide.

Data set [3] has as its target T1, native MDH (malate dehydrogenase) (Sus scrofa, UniProt P00346).
T1 sequence (P00346 25-338): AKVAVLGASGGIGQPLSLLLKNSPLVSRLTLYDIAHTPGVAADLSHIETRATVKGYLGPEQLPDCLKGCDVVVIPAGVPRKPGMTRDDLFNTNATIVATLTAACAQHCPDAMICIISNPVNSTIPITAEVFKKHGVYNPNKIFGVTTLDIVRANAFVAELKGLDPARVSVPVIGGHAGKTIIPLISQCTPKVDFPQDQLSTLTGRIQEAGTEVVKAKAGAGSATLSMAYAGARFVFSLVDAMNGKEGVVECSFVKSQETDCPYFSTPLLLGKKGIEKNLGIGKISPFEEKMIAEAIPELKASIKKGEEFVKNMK
The data set is described as follows: Native MDH enzymatic activity counter-screen. In kind it is biochemical. Background: Counterscreens check selectivity or assay interference.

Data set [4] deals with T1, native MDH (malate dehydrogenase). In kind it is biochemical.
The subject of a further data set is human FHC colon cells. The data set is described as follows: Alamar Blue cell viability assay, FHC colon cells. The settings on record: CC50 FHC colon cells over EC50 E. coli proliferation.
The subject of data set [5] is Klebsiella pneumoniae (ATCC #13883). Nature of the data set: K. pneumoniae bacterial proliferation assay. In kind it is cell-based.
Data set [6] deals with human mitochondrial HSP60/10 chaperonin system. Particulars: ref [59], [84]; cited from earlier work.

Like-named read-outs stand apart in the source and are kept apart here.

As a reminder, the IC50 is the concentration needed to halve the response being measured.

Chain of E. coli GroEL/ES (P0A6F5 2-548): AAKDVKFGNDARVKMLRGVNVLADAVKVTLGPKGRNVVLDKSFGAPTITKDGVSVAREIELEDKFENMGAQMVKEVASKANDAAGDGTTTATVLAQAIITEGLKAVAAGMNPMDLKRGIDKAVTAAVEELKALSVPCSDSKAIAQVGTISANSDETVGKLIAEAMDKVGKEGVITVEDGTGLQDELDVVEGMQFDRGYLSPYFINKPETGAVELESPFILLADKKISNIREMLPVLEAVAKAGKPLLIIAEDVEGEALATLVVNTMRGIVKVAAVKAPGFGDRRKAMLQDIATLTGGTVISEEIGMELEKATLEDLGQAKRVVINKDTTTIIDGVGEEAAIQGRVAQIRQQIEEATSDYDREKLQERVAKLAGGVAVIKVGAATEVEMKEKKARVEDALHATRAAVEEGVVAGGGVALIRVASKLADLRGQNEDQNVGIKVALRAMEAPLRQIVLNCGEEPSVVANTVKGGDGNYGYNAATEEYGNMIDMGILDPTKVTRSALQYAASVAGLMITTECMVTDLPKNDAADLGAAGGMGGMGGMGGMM

On to `O=C(N/N=C/c1ccc([N+](=O)[O-])o1)c1ccc(O)cc1` [Nifuroxazide], for which the “Time for E. coli to develop intermediate resistance” value (“Time for E. coli” for short) in the data set on NEB 5-alpha E. coli fell in the range of 3 to 5 days. In addition, the “Cytotoxicity to human cells (in words)” value in data set [1] is “low to no cytotoxicity”. Moreover, the “GroEL/ES inhibition in the presence of NfsB (in words)” value on E. coli GroEL/ES was “weak to moderate”. In [2], the “Cross-resistance of 17-resistant E. coli strains (in words)” value is on record as “susceptible” and the “Cross-resistance of nitrofurantoin-resistant E. coli strains (in words)” value is given as “still sensitive”.
With `O=C1CN(/N=C/c2ccc([N+](=O)[O-])o2)C(=O)N1` [Nitrofurantoin, reference compound], in the data set with NEB 5-alpha E. coli, the “Time for E. coli” value was in the range of 3 to 5 days. Moreover, the “SI (CC50 / EC50) Intestine” value in data set [1] (CC50 FHs 74 Int cells over EC50 E. coli proliferation) was above 146. In addition, the “Cytotoxicity to human cells (in words)” value in [1] is listed as “low to no cytotoxicity”. Further, the IC50 in data set [3] was above 63 µM. The same compound showed an IC50 in data set [4] above 56 µM. Also, at E. coli GroEL/ES, the “GroEL/ES inhibition in the presence of NfsB (in words)” value was “weak to moderate”. Moreover, in data set [2], the “Cross-resistance of 17-resistant E. coli strains (in words)” value is on record as “susceptible to nifuroxazide, but not nitrofurantoin” and the “Cross-resistance of nifuroxazide-resistant E. coli strains (in words)” value is given as “cross-resistant”. In addition, the “SI (CC50 / EC50) Colon” value in the data set with human FHC colon cells is on record as above 146.
As to `O=C(N/N=C/c1ccc([N+](=O)[O-])o1)c1cccs1` [compound 16], the “Cytotoxicity to human cells (in words)” value in data set [1] was “low to no cytotoxicity”. In addition, the IC50 in data set [3] was above 63 µM; in [4], above 56 µM. Further, in data set [5], the “Inhibition of K. pneumoniae (in words)” value is on record as “moderate inhibitors of K. pneumoniae”.
In the case of `O=C(N/N=C/c1ccc([N+](=O)[O-])o1)c1ccc(Cl)s1` [compound 17], the “Time for E. coli” value in the data set on NEB 5-alpha E. coli lay in the range of 3 to 5 days. The “Cytotoxicity to human cells (in words)” value in [1] is listed as “low to no cytotoxicity”. For the same compound, the IC50 in data set [3] is above 63 µM. Moreover, the IC50 in data set [4] is above 56 µM. Besides, in [2], the “Cross-resistance of nifuroxazide-resistant E. coli strains (in words)” value was “cross-resistant” and the “Cross-resistance of nitrofurantoin-resistant E. coli strains (in words)” value is “still sensitive”. Moreover, the “Inhibition of K. pneumoniae (in words)” value in data set [5] is listed as “moderate inhibitors of K. pneumoniae”.
Consider `O=C(N/N=C/c1ccc([N+](=O)[O-])o1)c1ccccc1` [compound 18], for which the IC50 was above 63 µM in data set [3] and above 56 µM in data set [4].
Regarding `O=C(N/N=C/c1ccc([N+](=O)[O-])o1)c1ccncc1` [compound 19], the IC50 was above 63 µM in data set [3] and above 56 µM in data set [4].
As for `COc1ccc(C(=O)N/N=C/c2ccc([N+](=O)[O-])o2)cc1` [compound 20], in data set [1], the “Cytotoxicity to human cells (in words)” value is reported as “low to no cytotoxicity”. Further, the IC50 in [3] was above 63 µM; in data set [4] it was above 56 µM. The “SI (CC50 / EC50) Colon” value in the data set with human FHC colon cells is on record as above 53.
With `CN(C)c1ccc(C(=O)N/N=C/c2ccc([N+](=O)[O-])o2)cc1` [compound 21], the IC50 in data set [3] is above 63 µM; in [4], above 56 µM.
Take `Cc1ccc(C(=O)Nc2ccc(S(=O)(=O)O)c3cc(S(=O)(=O)O)cc(S(=O)(=O)O)c23)cc1NC(=O)c1cccc(NC(=O)Nc2cccc(C(=O)Nc3cc(C(=O)Nc4ccc(S(=O)(=O)O)c5cc(S(=O)(=O)O)cc(S(=O)(=O)O)c45)ccc3C)c2)c1` [suramin]: in [6], the “HSP60/10 inhibition (in words)” value is on record as “potent HSP60/10 inhibitor”.
